In patent US10647699B2, “Substituted 2-oxyimidazolylcarboxamides as pesticides” (Bayer CropScience Aktiengesellschaft, priority 2016, dated 2020):
Read-outs that look alike come from different tables or passages of the source.

How the values were obtained:
Myzus persicae [1] = experiment: Myzus persicae spray test (MYZUPE), Chinese cabbage leaf discs; type: in vivo; conditions: for Emax at 100 g/ha / pest or weed control at 500 g/ha: Myzus persicae, foliar; for Emax at 100 g/ha: read-out: % efficacy; for pest or weed control at 500 g/ha: read-out: efficacy
Protocol: Myzus persicae—Spray Test
(§1) To produce a suitable preparation of active compound, 1 part by weight of active compound is dissolved using the specified parts by weight of solvent and made up with water containing an emulsifier concentration of 1000 ppm until the desired concentration is attained. To produce further test concentrations, the formulation is diluted with emulsifier-containing water.
Discs of Chinese cabbage leaves (Brassica pekinensis) infested by all stages of the green peach aphid (Myzus persicae) are sprayed with an active compound formulation of the desired concentration.
After 5 or 6 days, the efficacy in % is determined. 100% means that all the aphids have been killed; 0% means that no aphids have been killed.
Myzus persicae—Spray Test (MYZUPE)
Discs of Chinese cabbage leaves (Brassica pekinensis) infested by all stages of the green peach aphid (Myzus persicae) are sprayed with an active compound preparation of the desired concentration.
After the desired period of time, the efficacy in % is determined. 100% means that all the aphids have been killed; 0% means that no aphids have been killed.

Aphis gossypii = Aphis gossypii spray test on cotton plants; type: in vivo; conditions: for pest or weed control at 20 ppm: Aphis gossypii, 144 h, read-out: efficacy (kill)
Protocol: Aphis gossypii—Spray Test
Solvent: 14 parts by weight of dimethylformamide
Emulsifier: alkylaryl polyglycol ether
as §1, with “water. If the addition of ammonium salts or/and penetrants is required, these are each added in a concentration of 1000 ppm to the formulation solution.” for “water.”
Cotton plants (Gossypium hirsutum) which are heavily infested by the cotton aphid (Aphis gossypii) are sprayed with an active compound formulation of the desired concentration.
After 6 days, the kill in % is determined. 100% means that all the aphids have been killed; 0% means that no aphids have been killed.

Myzus persicae [2] = experiment: Myzus persicae oral test (MYZUPE O); type: in vivo; conditions: for Emax at 0.8 ppm / pest or weed control at 20 ppm / Emax at 4 ppm: Myzus persicae, po, 120 h; for Emax at 0.8 ppm / Emax at 4 ppm: read-out: % efficacy; for pest or weed control at 20 ppm: read-out: efficacy
Protocol: Solvent: 100 parts by weight of acetone
To produce a suitable preparation of active compound, 1 part by weight of active compound is dissolved using the specified parts by weight of solvent and made up with water until the desired concentration is attained.
50 μl of the active compound preparation are transferred into microtitre plates and made up to a final volume of 200 μl with 150 μl of IPL41 insect medium (33%+15% sugar). Subsequently, the plates are sealed with parafilm, which a mixed population of green peach aphids (Myzus persicae) within a second microtitre plate is able to puncture and imbibe the solution through it.
After 5 days, the efficacy in % is determined. 100% means that all the aphids have been killed; 0% means that no aphids have been killed.
Myzus persicae—Oral Test (MYZUPE O)
After 5 or 6 days (dat), the efficacy in % is determined. 100% means that all the aphids have been killed; 0% means that no aphids have been killed.

[3] = log P by HPLC on reversed-phase columns (OECD Guideline 117), neutral range; type: physicochemical; conditions: for chromatographic logP: reversed-phase (C18) HPLC column
Tetranychus urticae = Tetranychus urticae spray test, OP-resistant, bean leaf discs; type: in vivo; conditions: after 6 days, application rate 500 g/ha
Protocol: Tetranychus urticae—Spray Test, OP-Resistant
as §1
Discs of bean leaves (Phaseolus vulgaris) infested with all stages of the greenhouse red spider mite (Tetranychus urticae) are sprayed with an active compound formulation of the desired concentration.
After 6 days, the efficacy in % is determined. 100% means that all the spider mites have been killed; 0% means that no spider mites have been killed.

[4] = after 6 days, application rate 500 g/ha
[5] = after 6 days, application rate 20 ppm, cotton plants
[6] = after 5 days, application rate 20 ppm
[7] = after 5 days, application rate 500 g/ha
[8] = 144 h, MYZUPE, 100 g of ai/ha, 6 dat
[9] = 144 h, after 6 days, application rate 500 g/ha
[10] = HPLC, neutral range pH 7.8, read-out: LogP-neutral
[11] = 120 h, after 5 days, application rate 500 g/ha

Structure (SMILES)	efficacy (kill) (Aphis gossypii; [5]) [%]	efficacy (Myzus persicae [2]; [6]) [%]	LogP-neutral ([3]; pH 7.8)	efficacy (Myzus persicae [1]; [7]) [%]	other results
COCCCOc1ncc(C(=O)N(C)c2cccnc2)n1C [Example II-7]	100	100	1.27	–	efficacy (Myzus persicae [1]; [4]): 100%
CN(C(=O)c1cnc(Oc2ccccc2)n1C)c1cccnc1 [Example II-24]	98	100	–	100	LogP-neutral ([3]; HPLC, neutral range pH 7.8): 1.68
CN(C(=O)c1cnc(OCCCC#N)n1C)c1cccnc1 [Example II-38]	98	100	–	90	LogP-neutral ([3]; HPLC, neutral range pH 7.8): 1.08
CN(C(=O)c1cnc(Oc2cc(Cl)cc(C(F)(F)F)c2)n1C)c1cccnc1 [Example II-87]	–	100	2.87	90	efficacy (Tetranychus urticae): 90%
CN(C(=O)c1cnc(Oc2ccc(C#N)nc2)n1C)c1cccnc1 [Example II-58]	100	100	–	90	LogP-neutral ([3]; HPLC, neutral range pH 7.8): 1.1
CN(C(=O)c1cnc(Oc2cc(F)ccc2F)n1C)c1cccnc1 [Example II-14]	–	–	–	–	Emax at 100 g/ha (Myzus persicae [1]; [8]): 90%; pest or weed control at 500 g/ha (Myzus persicae [1]; [9]): 100%; pest or weed control at 20 ppm (Aphis gossypii; [5]): 99%; Emax at 0.8 ppm (Myzus persicae [2]; MYZUPE O, 0.8 ppm, 5 dat): 90%; pest or weed control at 20 ppm (Myzus persicae [2]; [6]): 100%; efficacy (Tetranychus urticae): 90%; chromatographic logP [3, 10]: 1.87
CN(C(=O)c1cnc(Oc2cncc(F)c2)n1C)c1cccnc1 [Example II-42]	100	100	1.3	90	–
CN(C(=O)c1cnc(Oc2cncc(Cl)c2)n1C)c1cccnc1 [Example II-41]	100	100	1.57	100	–
CN(C(=O)c1cnc(Oc2ccc(Cl)nc2)n1C)c1cccnc1 [Example II-15]	–	–	–	–	Emax at 100 g/ha (Myzus persicae [1]; [8]): 100%; pest or weed control at 500 g/ha (Myzus persicae [1]; [9]): 100%; pest or weed control at 20 ppm (Aphis gossypii; [5]): 100%; Emax at 0.8 ppm (Myzus persicae [2]; MYZUPE O, 0.8 ppm, 5 dat): 100%; pest or weed control at 20 ppm (Myzus persicae [2]; [6]): 100%; chromatographic logP [3, 10]: 1.53
CCCCSc1cccc(Oc2ncc(C(=O)N(C)c3cccnc3)n2C)c1 [Example II-82]	–	100	3.19	100	efficacy (Tetranychus urticae): 100%
CN(C(=O)c1cnc(Oc2ccc(F)c(Cl)c2)n1C)c1cccnc1 [Example II-89]	–	100	–	100	efficacy (Tetranychus urticae): 100%; LogP-neutral ([3]; HPLC, neutral range pH 7.8): 2.17
CCN(C(=O)c1cnc(Oc2ccc(Cl)nc2)n1C)c1cccnc1 [Example II-36]	100	100	–	90	LogP-neutral ([3]; HPLC, neutral range pH 7.8): 1.79
CCN(C(=O)c1cnc(OCCCC#N)n1C)c1cccnc1 [Example II-47]	100	100	–	90	LogP-neutral ([3]; HPLC, neutral range pH 7.8): 1.33
COc1ncc(C(=O)N(C)c2cccnc2)n1C [Example II-12]	–	–	–	–	pest or weed control at 500 g/ha (Myzus persicae [1]; [11]): 100%; Emax at 100 g/ha (Myzus persicae [1]; [8]): 90%; pest or weed control at 20 ppm (Aphis gossypii; [5]): 100%; Emax at 0.8 ppm (Myzus persicae [2]; MYZUPE O, 0.8 ppm, 5 dat): 100%; Emax at 4 ppm (Myzus persicae [2]; MYZUPE O, 4 ppm, 5 dat): 100%; pest or weed control at 20 ppm (Myzus persicae [2]; [6]): 100%; chromatographic logP [3, 10]: 0.9
CN(C(=O)c1cnc(OCCSCC(F)(F)F)n1C)c1cccnc1 [Example II-30]	100	100	1.97	100	% efficacy (Myzus persicae [1]; MYZUPE, 100 g of ai/ha, 5 dat): 90%; % efficacy (Myzus persicae [2]; MYZUPE O, 0.8 ppm, 5 dat): 100%; % efficacy (Myzus persicae [2]; MYZUPE O, 4 ppm, 5 dat): 100%
CN(C(=O)c1cnc(OC2CCOCC2)n1C)c1cccnc1 [Example II-32]	100	100	1.18	90	–

Structure (SMILES)	efficacy (kill) (Aphis gossypii; [5]) [%]	efficacy (Myzus persicae [2]; [6]) [%]	LogP-neutral ([3]; pH 7.8)	efficacy (Myzus persicae [1]; [7]) [%]	other results
CC(C)Oc1ncc(C(=S)N(C)c2cccnc2)n1C [Example II-3]	100	100	1.99	90	–
CN(C(=O)c1cnc(OCCC(F)(C(F)(F)F)C(F)(F)F)n1C)c1cccnc1 [Example II-34]	100	100	2.51	100	–
Cn1c(C(=O)N(c2cccnc2)C2CC2)cnc1Oc1cccc(C(F)(F)F)c1 [Example II-94]	–	100	2.59	–	efficacy (Tetranychus urticae): 90%
CN(C(=O)c1cnc(OCc2cccnc2)n1C)c1cccnc1 [Example II-8]	99	100	1.16	–	efficacy (Myzus persicae [1]; [4]): 90%
CCCOc1ncc(C(=O)N(C)c2cccnc2)n1C [Example II-5]	100	90	1.52	–	efficacy (Myzus persicae [1]; [4]): 90%
CN(C(=O)c1cnc(OC2CCOC2)n1C)c1cccnc1 (centres unmarked) [Example II-35]	100	100	–	90	LogP-neutral ([3]; HPLC, neutral range pH 7.8): 1
CC(C)Oc1ncc(C(=O)N(C)c2ccc[n+]([O-])c2)n1C [Example II-4]	100	100	1.03	90	–
CN(C(=O)c1cnc(Oc2cncc(C(F)(F)F)c2)n1C)c1cccnc1 [Example II-43]	100	100	1.83	90	–
CN(C(=O)c1cnc(OCCC(F)(F)F)n1C)c1cccnc1 [Example II-23]	–	–	–	–	Emax at 100 g/ha (Myzus persicae [1]; [8]): 90%; pest or weed control at 500 g/ha (Myzus persicae [1]; [9]): 90%; pest or weed control at 20 ppm (Aphis gossypii; [5]): 95%; Emax at 0.8 ppm (Myzus persicae [2]; MYZUPE O, 0.8 ppm, 5 dat): 100%; Emax at 4 ppm (Myzus persicae [2]; MYZUPE O, 4 ppm, 5 dat): 100%; pest or weed control at 20 ppm (Myzus persicae [2]; [6]): 100%; efficacy (Tetranychus urticae): 100%
CN(C(=O)c1cnc(Oc2cccc(Oc3ccccc3)c2)n1C)c1cccnc1 [Example II-81]	–	–	2.72	–	efficacy (Tetranychus urticae): 100%
CN(C(=O)c1cnc(Oc2cccc(OC(F)(F)F)c2)n1C)c1cccnc1 [Example II-27]	98	100	2.52	100	–
CN(C(=O)c1cnc(OC2CCSCC2)n1C)c1cccnc1 [Example II-31]	–	–	–	–	Emax at 100 g/ha (Myzus persicae [1]; 120 h, MYZUPE, 100 g of ai/ha, 5 dat): 90%; pest or weed control at 500 g/ha (Myzus persicae [1]; [11]): 100%; pest or weed control at 20 ppm (Aphis gossypii; [5]): 98%; Emax at 0.8 ppm (Myzus persicae [2]; MYZUPE O, 0.8 ppm, 5 dat): 70%; Emax at 4 ppm (Myzus persicae [2]; MYZUPE O, 4 ppm, 5 dat): 100%; pest or weed control at 20 ppm (Myzus persicae [2]; [6]): 100%; chromatographic logP [3, 10]: 1.63
CN(C(=O)c1cnc(Oc2ccc(Cl)cc2)n1C)c1cccnc1 [Example II-9]	100	100	–	–	efficacy (Myzus persicae [1]; [4]): 90%; LogP-neutral ([3]; HPLC, neutral range pH 7.8): 2.09
CN(C(=O)c1cnc(Oc2cccc(Cl)c2)n1C)c1cccnc1 [Example II-2]	–	–	–	–	Emax at 100 g/ha (Myzus persicae [1]; 144 h): 100%; pest or weed control at 500 g/ha (Myzus persicae [1]; 144 h): 100%; pest or weed control at 20 ppm (Aphis gossypii): 100%; Emax at 4 ppm (Myzus persicae [2]): 100%; pest or weed control at 20 ppm (Myzus persicae [2]): 100%; chromatographic logP ([3]; pH 7.8, HPLC-MS, neutral, read-out: log P[n]): 2.1
CSCCOc1ncc(C(=O)N(C)c2cccnc2)n1C [Example II-6]	99	100	1.45	–	efficacy (Myzus persicae [1]; [4]): 90%
